Results on seven sequences are retold here after US20220307013A1, “GENE FRAGMENT OVEREXPRESSION SCREENING METHODOLOGIES, AND USES THEREOF” (priority 2019, published 2022).

“Also recorded” adds a separate entry of the source. Where no end group is shown, it is not given here. Some results are limits rather than exact numbers.

In one test the test system is Colo205. The test can be described thus: Cell proliferation assay (CellTiter-Glo), Colo205. In kind it is cell-based. Conditions: Colo205, Human Colon, 72 hrs. The protocol:
(§1) Cell Proliferation Assay. The Tat-RAF1-73, Tat-RAF1-78, Tat-EGFR-697 and Tat-Flag peptides were tested for growth inhibition in an in vitro cell proliferation assay. The assay tested the peptides against ten tumor cell lines and four non-tumor cell lines (Primary Fibroblasts, CCD 841 CoN, human umbilical vein cells and Human Hepatocytes). Cells were plated in a 384 well plate and allowed to grow for 24 hrs. Peptides were then added to cultures at a final concentration range of 100 μM-0.2 μM. Cells and peptides were then reacted for 72 hrs, after which the CellTiter-Glo Luminescent Cell Viability Assay kit (Promega) was used to assess cytotoxicity of therapeutic peptides. IC50 values were determined by the percent cell growth of the untreated (vehicle) control calculated from the luminescence signals compared to test wells. The surviving fraction of cells is determined by dividing the mean luminescence values of the test agents by the mean luminescence values of the untreated control. The inhibitory concentration value, IC50, for the test agents and control was estimated using Prism 8 software (GraphPad Software, Inc.) by curve- fitting the data using the non-linear regression analysis.

In the next test the test system is FaDu. The test can be described thus: Cell proliferation assay (CellTiter-Glo), FaDu. Type of test: cell-based. Particulars: EGFR mRNA (Log2) 6.28, 72 hrs. The protocol:
as §1

The subject of the next test is Jurkat. As to the kind of experiment: Cell proliferation assay (CellTiter-Glo), Jurkat. Conditions: RAF1 mRNA (Log2) 6.05, 72 hrs. Type of test: cell-based. The protocol:
as §1

In the next test the test system is CCD 841 CoN. The test can be described thus: Cell proliferation assay (CellTiter-Glo), CCD 841 CoN. Type of test: cell-based. Particulars: Normal Human Colon (non-tumor), 72 hrs. How it is done:
as §1

Test [1] deals with ten tumor cell lines and four non-tumor cell lines. As to the kind of experiment: Cell proliferation assay (CellTiter-Glo), summary over the cell panel. In kind it is cell-based. Particulars: any of the cells screened. How it is done:
as §1
Ten cancer cell lines were screened as well as […] non-cancer cell types (e.g. primary fibroblasts, CCD 841 CoN, and human hepatocytes). […]

For the next test, the system named is Primary Fibroblasts. The test can be described thus: Cell proliferation assay (CellTiter-Glo), Primary Fibroblasts. In kind it is cell-based. Conditions: Skin Fibroblast (non-tumor), 72 hrs. The protocol:
as §1

The next test deals with HT1376. As to the kind of experiment: Cell proliferation assay (CellTiter-Glo), HT1376. In kind it is cell-based. Particulars: HT1376, EGFR mRNA (Log2) 5., 72 hrs, starred value was averaged using >100 μM value for one trial result. How it is done:
as §1

The next test has as its system A549. The test can be described thus: Cell proliferation assay (CellTiter-Glo), A549. Type of test: cell-based. Conditions: A549, RAF1 mRNA (Log2) Negative, 72 hrs. The protocol: as §1
A further test concerns Human Hepatocytes. The test can be described thus: Cell proliferation assay (CellTiter-Glo), Human Hepatocytes. Type of test: cell-based. Particulars: Human Hepatocytes (non-tumor), 72 hrs. The protocol: as §1
The subject of a further test is H929. As to the kind of experiment: Cell proliferation assay (CellTiter-Glo), H929. Particulars: H929, Human Multiple Myeloma, peptides 100 μM-0.2 μM, 72 hrs. Type of test: cell-based. The protocol: as §1
The next test has as its system SNU398. As to the kind of experiment: Cell proliferation assay (CellTiter-Glo), SNU398. Type of test: cell-based. Conditions: SNU398, RAF1 mRNA (Log2) 6.07, 72 hrs. The protocol:
as §1

For another test, the system named is MDA-MB-231. As to the kind of experiment: Cell proliferation assay (CellTiter-Glo), MDA-MB-231. Type of test: cell-based. Conditions: MDA-MB-231, EGFR mRNA (Log2) 4.78, 72 hrs. How it is done:
as §1

The test system of another test is SK-MEL-5. As to the kind of experiment: Cell proliferation assay (CellTiter-Glo), SK-MEL-5. Conditions: SK-MEL-5, EGFR mRNA (Log2) 5.92, 72 hrs. Type of test: cell-based. How it is done:
as §1

A further test has as its system HUH6-luc. The test can be described thus: Cell proliferation assay (CellTiter-Glo), HUH6-luc. Type of test: cell-based. Particulars: RAF1 mRNA (Log2) 6.05, 72 hrs. How it is done:
as §1

Test [2] has as its system Human umbilical vein endothelial cells (HUVEC). The test can be described thus: Cell proliferation assay (CellTiter-Glo), HUVEC. Type of test: cell-based. Conditions: Normal endothelial (non-tumor), 72 hrs. The protocol: as §1
Test [3] has as its system triple-negative breast cancer cell growth. As to the kind of experiment: Inhibition of cell growth by drug-like peptides (summary statements). Type of test: cell-based. Particulars: compared with FDA approved small molecules. How it is done:
Engineering Peptides for Exogenous Delivery. Peptides shown in FIG. 3B were fused to an N-terminal cell penetrating motif via a (GS)3 linker sequence (Table 5) and chemically synthesized by GenScript's Custom Peptide Synthesis service at crude purity. For dose response experiments, cells were plated in 96 well plates (n=4) at 50% confluency and peptides were added at the indicated concentrations with cell viability quantified after 24hrs via the WST-8 assay. Cell viability was normalized to that of an untreated control on the same plate.

A further test relates to HEK293T cells. As to the kind of experiment: Arrayed validation of lentivirally delivered gene fragments, WST-8 cell growth, HEK293T.
Another test deals with MDA-MB-231 cells. The test can be described thus: Arrayed validation of lentivirally delivered gene fragments, WST-8 cell growth, MDA-MB-231. Particulars: 7 days, vs GFP control.
The subject of the next test is Hs578T cells. As to the kind of experiment: Arrayed validation of lentivirally delivered gene fragments, WST-8 cell growth, Hs578T. Conditions: 7 days, vs GFP control.
A further test concerns MCF-7 cells. As to the kind of experiment: Arrayed validation of lentivirally delivered gene fragments, WST-8 cell growth, MCF-7.

Procedure for HEK293T cells: (§2) All cell lines used were cultured in DMEM media supplemented with 10% FBS. The fitness impact of highly depleted gene fragments was tested in an arrayed format via a WST-8 (Dojindo) cell growth assay. […] Cells were transduced at an MOI of 4 and switched to puromycin containing media after 48 hours. Following 24 hours of puromycin selection 1,500 cells were seeded per well as biological replicates in a 96 well plate. All experimental groups for Hs578T cells had n=4. […] For HEK293T and MCF-7 cells all experimental groups had n=8. 2 μg/ml puromycin was used to select Hs578T and MCF-7 cells, while 3.5 μg/ml puromycin was used to select MDA-MB-231 and HEK293T cells. […] Cell growth was then quantified via absorbance at 450 nm following 1.5 hrs of incubation with WST-8 reagent. A two-tailed P value was then calculated via an unpaired ttest with Welch's correction.
Procedure for Hs578T cells: as §2
Procedure for MCF-7 cells: as §2
Procedure for MDA-MB-231 cells: as §2

Consider “GRKKRRQRRRPPQGSGSGSDYKDHDGDYKDHDIDYKDDDDK [Tat-Flag, reference compound]”, for which the half-maximal inhibitory concentration (IC50) with Colo205, with FaDu, in the test with Jurkat, in the test on CCD 841 CoN, with Primary Fibroblasts and in the test on HT1376 was greater than 100 µM in each case. The half-maximal inhibitory concentration (IC50) in the test on A549, in the test on Human Hepatocytes, in the test on H929, with SNU398, with MDA-MB-231 and in the test on SK-MEL-5 was greater than 100 µM in each case. Also, the IC50 (in the test on HUH6-luc; in test [2]) was greater than 100 µM each time. In addition, the “activity in the cells screened” value in test [1] is “no activity”.
For “GRKKRRQRRRPPQGSGSGSMEAPNQALLRILKETEFKKIKVLGSGAFGTVYKGLWIPEGE [Tat-EGFR-697]”, the IC50 in the test on Colo205 is 19.8 µM; with FaDu, 89.2 µM; with Jurkat, 41.1 µM; in the test with CCD 841 CoN, greater than 100 µM; in the test with Primary Fibroblasts, 15.1 µM; with HT1376 it was 95.6 µM. The IC50 was found to be 59.6 µM in the test on A549; 11.6 µM in the test on Human Hepatocytes; 5.1 µM with H929; 29.2 µM with SNU398; 56.6 µM with MDA-MB-231; 27.6 µM in the test with SK-MEL-5. For the same sequence, the 50% inhibitory concentration (IC50) turned out to be 73.5 µM in the test with HUH6-luc and 14 µM in test [2].
For “MEAPNQALLRILKETEFKKIKVLGSGAFGTVYKGLWIPEGE [EGFR-697]”, the “triple-negative breast cancer cell growth in vitro” value in test [3] is “opposed triple-negative breast cancer cell growth in vitro as effectively as some FDA approved small molecules”. Besides, the “cell growth after lentiviral overexpression (WST-8)” value (“cell growth … (WST-8)” for short) is reported as “no growth defects” with HEK293T cells, “deleterious to cell growth” in the test on MDA-MB-231 cells, “deleterious to cell growth; also recorded: significant growth arrest” in the test with Hs578T cells and “reduced fitness defect” in the test with MCF-7 cells.
In the case of “MFVDEYDPTIEDSYRKQVVIDGETCLLDILDTAGKEEYSAM [KRAS61K-7]”, the “cell growth … (WST-8)” value in the test with MDA-MB-231 cells and in the test with Hs578T cells was “significantly reduced cell growth” in each case.
As for “MIQNHFVDEYDPTIEDSYRKQVVIDGETCLLDILDTAGKEE [KRAS61K-3]”, the “cell growth … (WST-8)” value in the test on MDA-MB-231 cells and with Hs578T cells was “significantly reduced cell growth” in each case.
For the sequence “MPTIEDSYRKQVVIDGETCLLDILDTAGKEEYSAMRDQYMR [KRAS61K-13]”, the “cell growth … (WST-8)” value in the test with MDA-MB-231 cells and in the test with Hs578T cells was “significantly reduced cell growth” throughout.
Turning to “MRNGMSLHDCLMKALKVRGLQPECCAVFRLLHEHKGKKARL (cysteines drawn unpaired) [RAF1-73]”, the “triple-negative breast cancer cell growth in vitro” value in test [3] was “opposed triple-negative breast cancer cell growth in vitro as effectively as some FDA approved small molecules”. In addition, in the test with HEK293T cells, the “cell growth … (WST-8)” value is “no growth defects”.
